In patent publication US20090156517A1, “STABLE PHARMACEUTICAL COMPOSITIONS OF AMINOGLYCOSIDE ANTIBIOTICS, ION-CHELATING AGENTS, AND BUFFERS” (priority 2006, published 2009):
Entries after “also recorded” stand apart in the source; their conditions may differ. One block for each compound: values may come before it.

Experiments:
[1] = HIAC light obscuration test (USP 788), aggregate particle content; type: physicochemical; settings: composition prepared as a liquid solution
Method: Light obscuration testing was performed for solution preparations prepared with some of the compositions described in the examples according to the method described in the United States Pharmacopeia (USP 788) using HIAC-3000 light obscuration detector. Particle content is denoted by the number of particles per milliliter of solution. The value is an average of two measurements. Samples were tested at 1 hour and at 20 hours.

[2] = Amounts of antibiotic components in the solution over time (reverse-phase LC/UV for β-lactams and β-lactamase inhibitors, HPLC/evaporation-light-scattering for aminoglycosides); type: physicochemical
Method: The amounts of β-lactam antibiotics and β-lactamase inhibitor were determined using C18 reverse-phase LC and UV-VIS detector (Tianjin […] Co., Ltd., analysis method No. HM-K-03). The content of aminoglycoside antibiotics was measured using reverse-phase HPLC and evaporation-light-scattering detector (Tianjin […] Co., Ltd., analysis method No. HM-K-08). […] The relative amount of each antibiotic component in the composition at each time point was expressed as peak area ratio with respect to the corresponding peak area of an external standard.

[3] = Example 5 solution (cefoperazone sodium, sulbactam sodium, gentamicin, disodium EDTA, sodium citrate pH 6.75), room temperature, 0 h
[4] = Example 5 solution (cefoperazone sodium, sulbactam sodium, gentamicin, disodium EDTA, sodium citrate pH 6.75), room temperature, 1 h
[5] = Example 5 solution (cefoperazone sodium, sulbactam sodium, gentamicin, disodium EDTA, sodium citrate pH 6.75), room temperature, 2 h
[6] = Example 5 solution (cefoperazone sodium, sulbactam sodium, gentamicin, disodium EDTA, sodium citrate pH 6.75), room temperature, 4 h

Compound: O=C(O)CN(CCN(CC(=O)O)CC(=O)O)CC(=O)O [EDTA, ethylenediamine tetraacetic acid]
Effect on aggregate particle formation in the solution preparations [1]: significantly reduce aggregate particle formation; also recorded: effective in inhibiting formation of aggregate particles

Compound: CC1(C)[C@H](C(=O)O)N2C(=O)C[C@H]2S1(=O)=O [Sulbactam sodium, sulbactam sodium]
Amount of component, percentage of amount at initial time ([2]; Example 4 solution (cefoperazone sodium, sulbactam sodium, gentamicin, sodium citrate pH 6.75, no EDTA), room temperature, 0 h): 101.4%
Amount of component, percentage of amount at initial time ([2]; Example 4 solution (cefoperazone sodium, sulbactam sodium, gentamicin, sodium citrate pH 6.75, no EDTA), room temperature, 1 h): 101.4%
Amount of component, percentage of amount at initial time ([2]; Example 4 solution (cefoperazone sodium, sulbactam sodium, gentamicin, sodium citrate pH 6.75, no EDTA), room temperature, 2 h): 101.5%
Amount of component, percentage of amount at initial time ([2]; Example 4 solution (cefoperazone sodium, sulbactam sodium, gentamicin, sodium citrate pH 6.75, no EDTA), room temperature, 4 h): 109.7%
Amount of component, percentage of amount at initial time ([2]; Example 4 solution (cefoperazone sodium, sulbactam sodium, gentamicin, sodium citrate pH 6.75, no EDTA), room temperature, 6 h): 103.2%
Amount of component, percentage of amount at initial time [2, 3]: 101.4%
Amount of component, percentage of amount at initial time [2, 4]: 101.4%
Amount of component, percentage of amount at initial time [2, 5]: 101.5%
Amount of component, percentage of amount at initial time [2, 6]: 109.7%
Amount of component, percentage of amount at initial time ([2]; Example 5 solution (cefoperazone sodium, sulbactam sodium, gentamicin, disodium EDTA, sodium citrate pH 6.75), room temperature, 6 h): 103.2%
Amount of component, percentage of amount at initial time ([2]; Example 6 solution (cefoperazone sodium, sulbactam sodium, etimicin sulfate, disodium EDTA, sodium citrate pH 6.5), room temperature, 0 h): 99.62%
Amount of component, percentage of amount at initial time ([2]; Example 6 solution (cefoperazone sodium, sulbactam sodium, etimicin sulfate, disodium EDTA, sodium citrate pH 6.5), room temperature, 1 h): 100.4%
Amount of component, percentage of amount at initial time ([2]; Example 6 solution (cefoperazone sodium, sulbactam sodium, etimicin sulfate, disodium EDTA, sodium citrate pH 6.5), room temperature, 2 h): 100.2%
Amount of component, percentage of amount at initial time ([2]; Example 6 solution (cefoperazone sodium, sulbactam sodium, etimicin sulfate, disodium EDTA, sodium citrate pH 6.5), room temperature, 4 h): 100.2%
Amount of component, percentage of amount at initial time ([2]; Example 7 solution (ceftriaxone sodium, sulbactam sodium, etimicin sulfate, disodium EDTA, sodium citrate pH 6.5), room temperature, 0 h): 96.84%
Amount of component, percentage of amount at initial time ([2]; Example 7 solution (ceftriaxone sodium, sulbactam sodium, etimicin sulfate, disodium EDTA, sodium citrate pH 6.5), room temperature, 1 h): 94.43%
Amount of component, percentage of amount at initial time ([2]; Example 7 solution (ceftriaxone sodium, sulbactam sodium, etimicin sulfate, disodium EDTA, sodium citrate pH 6.5), room temperature, 2 h): 93.35%
Amount of component, percentage of amount at initial time ([2]; Example 7 solution (ceftriaxone sodium, sulbactam sodium, etimicin sulfate, disodium EDTA, sodium citrate pH 6.5), room temperature, 4 h): 93.23%
Amount of component, percentage of amount at initial time ([2]; Example 7 solution (ceftriaxone sodium, sulbactam sodium, etimicin sulfate, disodium EDTA, sodium citrate pH 6.5), room temperature, 6 h): 92.13%
Amount of component, percentage of amount at initial time ([2]; Example 7 solution (ceftriaxone sodium, sulbactam sodium, etimicin sulfate, disodium EDTA, sodium citrate pH 6.5), room temperature, 8 h): 93.38%
Amount of component, percentage of amount at initial time ([2]; Example 10: piperacillin sodium/sulbactam sodium solution cryopreserved 7 days, thawed, pH 6.0, etimicin sulfate added, no EDTA, 0 h): 94.1%
Amount of component, percentage of amount at initial time ([2]; Example 10: piperacillin sodium/sulbactam sodium solution cryopreserved 7 days, thawed, pH 6.0, etimicin sulfate added, no EDTA, 1 h): 97.4%
Amount of component, percentage of amount at initial time ([2]; Example 10: piperacillin sodium/sulbactam sodium solution cryopreserved 7 days, thawed, pH 6.0, etimicin sulfate added, no EDTA, 2 h): 96.4%
Amount of component, percentage of amount at initial time ([2]; Example 10: piperacillin sodium/sulbactam sodium solution cryopreserved 7 days, thawed, pH 6.0, etimicin sulfate added, no EDTA, 4 h): 97.7%
Amount of component, percentage of amount at initial time ([2]; Example 10: piperacillin sodium/sulbactam sodium solution cryopreserved 7 days, thawed, pH 6.0, etimicin sulfate added, no EDTA, 6 h): 96.9%
Amount of component, percentage of amount at initial time ([2]; Example 10: piperacillin sodium/sulbactam sodium solution cryopreserved 7 days, thawed, pH 6.0, etimicin sulfate added, no EDTA, 8 h): 97.1%

Amount of component, percentage of amount at initial time ([2]; Example 8 solution (ceftriaxone sodium, tazobactam sodium, gentamicin sulfate, sodium citrate pH 6.75), room temperature, 0 h): 102.2%
Amount of component, percentage of amount at initial time ([2]; Example 8 solution (ceftriaxone sodium, tazobactam sodium, gentamicin sulfate, sodium citrate pH 6.75), room temperature, 1 h): 97.53%
Amount of component, percentage of amount at initial time ([2]; Example 8 solution (ceftriaxone sodium, tazobactam sodium, gentamicin sulfate, sodium citrate pH 6.75), room temperature, 2 h): 94.16%
Amount of component, percentage of amount at initial time ([2]; Example 8 solution (ceftriaxone sodium, tazobactam sodium, gentamicin sulfate, sodium citrate pH 6.75), room temperature, 4 h): 94.58%
Amount of component, percentage of amount at initial time ([2]; Example 8 solution (ceftriaxone sodium, tazobactam sodium, gentamicin sulfate, sodium citrate pH 6.75), room temperature, 6 h): 95.45%
Amount of component, percentage of amount at initial time ([2]; Example 8 solution (ceftriaxone sodium, tazobactam sodium, gentamicin sulfate, sodium citrate pH 6.75), room temperature, 8 h): 94.44%
Amount of component, percentage of amount at initial time ([2]; Example 14: cefoperazone sodium/tazobactam sodium solution pH 6.75, disodium EDTA and amikacin sulfate added, room temperature, 0 h): 98.5%
Amount of component, percentage of amount at initial time ([2]; Example 14: cefoperazone sodium/tazobactam sodium solution pH 6.75, disodium EDTA and amikacin sulfate added, room temperature, 1 h): 98.7%
Amount of component, percentage of amount at initial time ([2]; Example 14: cefoperazone sodium/tazobactam sodium solution pH 6.75, disodium EDTA and amikacin sulfate added, room temperature, 2 h): 98.2%
Amount of component, percentage of amount at initial time ([2]; Example 14: cefoperazone sodium/tazobactam sodium solution pH 6.75, disodium EDTA and amikacin sulfate added, room temperature, 4 h): 95.6%
Amount of component, percentage of amount at initial time ([2]; Example 14: cefoperazone sodium/tazobactam sodium solution pH 6.75, disodium EDTA and amikacin sulfate added, room temperature, 6 h): 94.0%
Amount of component, percentage of amount at initial time ([2]; Example 14: cefoperazone sodium/tazobactam sodium solution pH 6.75, disodium EDTA and amikacin sulfate added, room temperature, 8 h): 96.1%
Compound: C[C@]1(Cn2ccnn2)[C@H](C(=O)O)N2C(=O)C[C@H]2S1(=O)=O [Tazobactam sodium, tazobactam sodium]

Amount of component, percentage of amount at initial time [2, 3]: 102.1%
Amount of component, percentage of amount at initial time [2, 4]: 104.6%
Amount of component, percentage of amount at initial time [2, 5]: 96.51%
Amount of component, percentage of amount at initial time [2, 6]: 100.4%
Compound: gentamicin
